{"source": "patent US20050119352A1", "about": "“Method of treating cancers” (priority 2002, published 2005)", "key": {"[1]": {"tested_on": "transplanted human mammary carcinoma", "conditions": "cited from earlier work"}, "[2]": {"tested_on": "ARH-77 cells, a human multiple myeloma cell line", "assay": "MTT cell survival assay in ARH-77 multiple myeloma cells", "procedure": "β-lapachone was dissolved at 20 mM concentration in dimethyl sulfoxide (DMSO), aliquoted, and stored at −20° C. for cell culture use. Imatinib was dissolved at 100 mM concentration in dimethyl sulfoxide (DMSO).\nEach well was treated with β-lapachone and/or imatinib. Each condition was run in triplicate. […] The plates were read using a plate reader at 570 nm."}, "[3]": {"tested_on": "K562 cells (human chronic myelogenous leukemia cell line), imatinib-resistant", "assay": "MTT cell survival assay in K562 CML cells, imatinib-resistant line", "assay_type": "cell-based", "conditions": "48 hours; for % Viability: Imatinib 0 μM", "procedure": "(§1) K562 cells (a human chronic myelogenous leukemia (CML) cell line), were suspended in RPMI 1640 Medium (Life Technologies Inc.), supplemented with 10% FCS, 2 mM L-glutamine in 96-well plates (2×10^4 cells per well). Both an imatinib-sensitive and an imatinib-resistant cell line were used. Each well was treated with β-lapachone and/or imatinib. Each condition was run in triplicate. After incubation for 48 hours, cell survival was assayed using MTT to determine cell survival. The plates were read using a plate reader at 570 nm."}, "[4]": {"tested_on": "K562 cells (human chronic myelogenous leukemia cell line), imatinib-sensitive", "assay": "MTT cell survival assay in K562 CML cells, imatinib-sensitive line", "procedure": "as §1"}, "[5]": {"conditions": "cited from earlier work"}}, "note": "Read-outs that look alike come from different tables or passages of the source."}
{"smiles": "O=CN/C=C/c1cc(O)ccc1O", "note": "[erbstatin]", "values": [{"measurement": "tumor growth", "setting": "[1]; another carcinoma which does not express the EGF receptor", "value": "without effect"}, {"measurement": "tumor growth", "setting": "[1]; carcinoma which expresses epidermal growth factor receptor tyrosine kinase, athymic nude mice", "value": "selectively attenuates the growth"}]}
{"smiles": "Cc1ccc(NC(=O)c2ccc(CN3CCN(C)CC3)cc2)cc1Nc1nccc(-c2cccnc2)n1", "note": "[imatinib, Imatinib]", "values": [{"measurement": "% Viability", "setting": "[2]; STI571 1 μM, Co-501 0 μM, 24 hours", "value": 66.3, "unit": "%"}, {"measurement": "% Viability", "setting": "[2]; STI571 2 μM, Co-501 0 μM, 24 hours", "value": 80.0, "unit": "%"}, {"measurement": "% Viability", "setting": "[2]; STI571 5 μM, Co-501 0 μM, 24 hours", "value": 85.7, "unit": "%"}, {"measurement": "% Viability", "setting": "[2]; STI571 10 μM, Co-501 0 μM, 24 hours", "value": 91, "unit": "%"}, {"measurement": "% Viability", "setting": "[2]; STI571 20 μM, Co-501 0 μM, 24 hours", "value": 47, "unit": "%"}, {"measurement": "% Viability", "setting": "[2]; STI571 20 μM, Co-501 0 μM, 24 hours, listed as STI571", "value": 46.7, "unit": "%"}, {"measurement": "% Viability", "setting": "[2]; STI571 50 μM, Co-501 0 μM, 24 hours", "value": 10.0, "unit": "%"}, {"measurement": "viability at 1 µM", "setting": "[3]; Homo sapiens, K562, Imatinib 1 μM, B-lapachon 0 μM", "value": 94.7, "unit": "%"}, {"measurement": "viability at 5 µM", "setting": "[3]; Homo sapiens, K562, Imatinib 5 μM, B-lapachon 0 μM", "value": 57.3, "unit": "%"}, {"measurement": "viability at 10 µM", "setting": "[3]; Homo sapiens, K562, Imatinib 10 μM, B-lapachon 0 μM", "value": 22.5, "unit": "%"}, {"measurement": "viability at 20 µM", "setting": "[3]; Homo sapiens, K562, Imatinib 20 μM, B-lapachon 0 μM", "value": 11.5, "unit": "%"}, {"measurement": "viability at 40 µM", "setting": "[3]; Homo sapiens, K562, Imatinib 40 μM, B-lapachon 0 μM", "value": 4.9, "unit": "%"}, {"measurement": "sensitivity to imatinib alone, compared with imatinib-sensitive line", "setting": "[3]; imatinib alone", "value": "less sensitivity"}, {"measurement": "viability at 0.5 µM", "setting": "[4]; Homo sapiens, K562, 48 h", "value": 57.2, "unit": "%"}, {"measurement": "viability at 1 µM", "setting": "[4]; Homo sapiens, K562, 48 h", "value": 36.6, "unit": "%"}, {"measurement": "viability at 5 µM", "setting": "[4]; Homo sapiens, K562, 48 h", "value": 20.9, "unit": "%"}, {"measurement": "viability at 10 µM", "setting": "[4]; Homo sapiens, K562, 48 h", "value": 13.9, "unit": "%"}, {"measurement": "viability at 20 µM", "setting": "[4]; Homo sapiens, K562, 48 h", "value": 0.9, "unit": "%"}]}
{"smiles": "CC1(C)CCC2=C(O1)c1ccccc1C(=O)C2=O", "note": "[β-lapachone, 3,4-dihydro-2,2-dimethyl-2H-naphtho[1,2-b]pyran-5,6-dione]", "values": [{"measurement": "viability at 1 µM", "setting": "[2]; Homo sapiens, ARH-77, 24 h, STI571 0 μM, Co-501 1 μM, 24 hours", "value": 91, "unit": "%"}, {"measurement": "viability at 2 µM", "setting": "[2]; Homo sapiens, ARH-77, 24 h, STI571 0 μM, Co-501 2 μM, 24 hours", "value": 34, "unit": "%"}, {"measurement": "viability at 4 µM", "setting": "[2]; Homo sapiens, ARH-77, 24 h, STI571 0 μM, Co-501 4 μM, 24 hours", "value": 40, "unit": "%"}, {"measurement": "% Viability", "setting": "[2]; STI571 0 μM, Co-501 2 μM, 24 hours", "value": 34.3, "unit": "%"}, {"measurement": "% Viability", "setting": "[2]; human, 24 h, 1 μM", "value": 91.4, "unit": "%"}, {"measurement": "water solubility", "setting": "[5]", "value": "water insolubility"}, {"measurement": "% Viability", "setting": "[3]; B-lapachon 0.5 μM", "value": 80.5, "unit": "%"}, {"measurement": "% Viability", "setting": "[3]; B-lapachon 1 μM", "value": 79, "unit": "%"}, {"measurement": "% Viability", "setting": "[3]; B-lapachon 2 μM", "value": 45, "unit": "%"}, {"measurement": "% Viability", "setting": "[3]; B-lapachon 4 μM", "value": 0.56, "unit": "%"}, {"measurement": "% Viability", "setting": "[4]; Imatinib 0 μM, B-lapachone 1 μM, 48 hours", "value": 36.2, "unit": "%"}, {"measurement": "% Viability", "setting": "[4]; Imatinib 0 μM, B-lapachone 2 μM, 48 hours", "value": 11.9, "unit": "%"}, {"measurement": "% Viability", "setting": "[4]; Imatinib 0 μM, B-lapachone 4 μM, 48 hours", "value": 1.0, "unit": "%"}, {"measurement": "% Viability", "setting": "[4]; human, 48 h, 0.5 μM", "value": 58.3, "unit": "%"}]}
